Reference: patent US20240197702A1, “ANTISEPTIC-ANTIBIOTIC GUMBOS EFFECTIVE AGAINST GRAM-NEGATIVE PATHOGENS” (priority 2020, published 2024)
Values after ≈ are worked out from the molar mass of the structure shown. Like-named read-outs stand apart in the source and are kept apart here.

Legend:
[1] = tested on: N. gonorrhoeae ATCC 49226; experiment: MIC by micro-broth dilution against N. gonorrhoeae ATCC 49226; type: cell-based, Neisseria gonorrhoeae; details: for MIC: ATCC 49226, micro-broth dilution, 20-24 hours
Procedure: (§1) Minimum Inhibitory Concentrations of GUMBOS against N. gonorrhoeae: Clinical isolates of N. gonorrhoeae and N. gonorrhoeae ATCC 49226 were obtained from Louisiana State University Health Sciences Center New Orleans HIV Outpatient Clinic. Minimum inhibitory concentrations (MICs) of GUMBOS, constituent parent drugs, azithromycin, and unreacted mixtures were determined using micro-broth dilution in 96-well plates. […] Stock solutions were diluted to a known working concentration and 100 μL were added to the first row of the plate. For susceptibility testing of N. gonorrhoeae, media was prepared according to methods reported by Wade and […]. Euro. Microbiol. Soc. Microbiol. […] This liquid medium allowed dense growth of N. gonorrhoeae for use in broth dilution tests. Protein-free liquid media (100 μL) were added to each well and two-fold dilutions were performed. The antibiotic containing wells were inoculated with an equal volume of bacterial inoculum matching a 0.5 McFarland standard. […] The lowest concentration of antibiotic that prevents growth is the MIC.

[2] = tested on: clinical isolates of N. gonorrhoeae; experiment: MIC by micro-broth dilution against N. gonorrhoeae clinical isolates; type: cell-based, Neisseria gonorrhoeae; details: for MIC: four clinical isolates, micro-broth dilution, 20-24 hours
Procedure: as §1

[3] = tested on: Carbapenem-resistant clinical isolates of Escherichia coli; experiment: MIC by micro-broth dilution against carbapenem-resistant E. coli; type: cell-based; details: MH broth
Procedure: (§2) Minimum Inhibitory Concentrations of GUMBOS against N. gonorrhoeae: Clinical isolates of N. gonorrhoeae and N. gonorrhoeae ATCC 49226 were obtained from Louisiana State University Health Sciences Center New Orleans HIV Outpatient Clinic. Minimum inhibitory concentrations (MICs) of GUMBOS, constituent parent drugs, azithromycin, and unreacted mixtures were determined using micro-broth dilution in 96-well plates. Stock solutions of 1 mM were prepared in deionized water (1% DMSO). Stock solutions were diluted to a known working concentration and 100 μL were added to the first row of the plate. For susceptibility testing of N. gonorrhoeae, media was prepared according to methods reported by Wade and Graver (Fed. Euro. Microbiol. Soc. Microbiol. Letts (2007), 273 (1), 35-37). This liquid medium allowed dense growth of N. gonorrhoeae for use in broth dilution tests. Protein-free liquid media (100 μL) were added to each well and two-fold dilutions were performed. The antibiotic containing wells were inoculated with an equal volume of bacterial inoculum matching a 0.5 McFarland standard. Microtiter plates were incubated for 20-24 hours at 37° C. with 5% CO2 and examined for visible signs of bacterial growth as evidenced by turbidity. The lowest concentration of antibiotic that prevents growth is the MIC.
(§3) Minimum Inhibitory Concentrations of GUMBOS against Carbapenem-resistant Enterobacteriaceae: GUMBOS, ceftriaxone, and azithromycin were tested against extended spectrum beta-lactamase (ESBL)-producing gram negative bacteria. Carbapenem-resistant clinical isolates of Escherichia coli, Enterobacter cloacae, and Klebsiella pneumoniae were obtained from Louisiana State University (LSU) Health Sciences Center New Orleans HIV Outpatient Clinic. Minimum inhibitory concentrations were determined as described above using micro-broth dilutions with two minor adjustments, cation-adjusted Mueller Hinton (MH) broth was used instead and stock solutions of test compounds were prepared directly in MH broth.

[4] = tested on: Carbapenem-resistant clinical isolate of Klebsiella pneumoniae; experiment: MIC by micro-broth dilution against carbapenem-resistant K. pneumoniae; type: cell-based; details: CRE K. pneumoniae, MH broth
Procedure: as §2, §3

[5] = tested on: Carbapenem-resistant clinical isolate of Enterobacter cloacae; experiment: MIC by micro-broth dilution against carbapenem-resistant E. cloacae; type: cell-based; details: CRE E. cloacae, MH broth
Procedure: as §2, §3

[6] = tested on: N. gonorrhoeae ATCC 49226; experiment: Kirby-Bauer disc diffusion against N. gonorrhoeae ATCC 49226; type: cell-based, Neisseria gonorrhoeae; details: for Zone size, mm (±SD): ATCC 49226, disc diffusion, 20-24 h; for Zone sizes against CLSI susceptibility range: N. gonorrhoeae (ATCC 49226) and three clinical isolates
Procedure: (§4) Antimicrobial susceptibility testing: Kirby-Bauer disc diffusion susceptibility tests were used to determine zones of inhibition (ZOIs) for N. gonorrhoeae (ATCC 49226) and three clinical isolates obtained from Louisiana State University Health Sciences Center New Orleans HIV Outpatient Clinic. Kirby-Bauer disc diffusion is one of the CDC's preferred methods of testing the susceptibility of N. gonorrhoeae. Testing was performed according to CLSI recommended procedures. In this susceptibility test, 6 mm diameter blank paper discs were impregnated with known quantities of antimicrobial drug followed by evaporation of solvent; however, ceftriaxone, azithromycin and doxycycline antimicrobial susceptibility discs were purchased from Thermo Fisher Scientific. Impregnated discs were placed onto prepared nutrient agar plates that were inoculated with N. gonorrhoeae to give a confluent lawn of growth. Suspensions of these various strains were prepared in accordance with a 1.0 McFarland standard. Inoculated agar plates were incubated for 20-24 h at 37° C. in a 5% CO2 atmosphere.
(§5) Blank discs were loaded with 50 nmol of GUMBOS, respective constituent compounds and equivalent stoichiometric unreacted mixtures of octenidine and carbenicillin that are equimolar to the purchased ceftriaxone discs (Oxoid™, Thermo Fisher). After 20-24 h incubation, diameters of ZOIs were measured using a ruler. […] Antibacterial activity was improved for octenidine when chloride ions were exchanged for the antibiotic. […] This effect was not seen, however, for an unreacted mixture of the two drugs for either N. gonorrhoeae (ATCC 49226) or clinical isolates. The ZOIs of octenidine/carbenicillin were also larger than or equal to azithromycin and doxycycline ZOIs for N. gonorrhoeae (ATCC 49226). […] This is significant as resistance rates for azithromycin have increased worldwide. Among 57 countries reporting on azithromycin susceptibility, 28 (49%) reported>5% resistance. […] Ceftriaxone produced large ZOIs as the clinical population still remains susceptible to it in the USA (only 0.2% of isolates had elevated resistance to ceftriaxone in 2017).

[7] = tested on: N. gonorrhoeae clinical isolates; experiment: Kirby-Bauer disc diffusion against N. gonorrhoeae clinical isolates; type: cell-based, Neisseria gonorrhoeae; details: three clinical isolates, 20-24 h
Procedure: as §4, §5

HeLa cells = experiment: MTT cytotoxicity assay of ceftriaxone-based GUMBOS; type: cell-based; details: for IC50: read-out: Acute cytotoxicity (IC50); for Relative cell toxicity (in words): comparison with mixture or parent antiseptic
Procedure: Cytotoxicity Assay of GUMBOS: Cytotoxicity of GUMBOS, unreacted mixtures, and antiseptics towards healthy cells were evaluated using the MTT assay, a colorimetric dye assay, according to manufacturer's instructions. […] Stock solutions of antimicrobial agents in cell medium (1% MeOH) were diluted to a known working concentration, doubly diluted, and transferred to seeded cells. […] Cells treated with only DMEM were used as a negative control. After incubation, 15 μL of MTT were added to each well and cells were further incubated for an hour. Sodium dodecyl sulfate dimethylformamide solution was added after this additional incubation time in order to dissolve the purple formazan crystals. Cell viability was quantified at 570 nm using a microplate spectrophotometer (Eppendorf PlateReader AF2200, Hauppauge, NY). Cell viability as a percentage was determined as the ratio between treated cells and untreated (control) cells taken as 100%.

[8] = Octanol-water partition coefficient (Log P), shake-flask method
Procedure: Octanol-Water Partition Coefficient: To determine the relative lipophilic strength of GUMBOS, the logarithmic octanol-water partition coefficient (Log P) was measured. It is a ratiometric parameter based on the concentration of therapeutic agent in either phase of the two-phase system (octanol and water) when at equilibrium (Equation 1). Specifically, a shake-flask method was used. To prevent minimal solvent miscibility, an equal amount of water and 1-octanol were mixed together for 24 hours and subsequently allowed to separate. The octanol layer was used to generate a calibration curve from the absorbance of the compound at various concentrations. An equal volume of saturated water was added to a flask of known concentration (Ci) chosen from the calibration curve. This mixture was stirred for a minimum of two hours and left undisturbed to allow the two solvent layers to separate. The absorbance of the therapeutic salt in the octanol layer was determined (Co). Thus, the concentration of therapeutic agent in water was determined using Ci−Co=Cw.
However, octanol-water partition coefficients were measured for GUMBOS using the shake flask method to further explore the lipophilic properties of these compounds.

MIC [1]	MIC ([3]; CRE E. Coli (Isolate 2))	MIC ([3]; CRE E. coli (Isolate 1))	MIC [4]	MIC [5]	MIC [2]	Compound	Zone size, mm (±SD) [6]	Zone size, mm (±SD) [7]	IC50 (HeLa cells; 15 min)	IC50 (HeLa cells; 60 min)	other results
0.04 µM	>500 µM	>500 µM	>500 µM	>500 µM		CO/N=C(\C(=O)N[C@@H]1C(=O)N2C(C(=O)[O-])=C(CSc3nc(=O)c([O-])nn3C)CS[C@H]12)c1csc(N)n1.[Na+].[Na+] [Ceftriaxone, Ceftriaxone disodium salt]	51 ± 1 mm	49 ± 4 mm			Concentration as compared to GUMBOS ([1]; N. gonorrhoeae ATCC 49226): half-fold decrease; MIC ([2]; read-out: MIC): 0.02 µM; Zone sizes against CLSI susceptibility range [6]: within the susceptibility range set by CLSI
						C[C@H]1c2cccc(O)c2C(=O)C2=C(O)[C@]3(O)C(=O)C(C(N)=O)=C(O)[C@@H](N(C)C)[C@@H]3[C@@H](O)[C@@H]21 [Doxycycline, doxycycline]	35 ± 0.6 mm	28 ± 7 mm			
						CC[C@H]1OC(=O)[C@H](C)[C@@H](O[C@H]2C[C@@](C)(OC)[C@@H](O)[C@H](C)O2)[C@H](C)[C@@H](O[C@@H]2O[C@H](C)C[C@H](N(C)C)[C@H]2O)[C@](C)(O)C[C@@H](C)CN(C)[C@H](C)[C@@H](O)[C@]1(C)O [Azithromycin, azithromycin]	40 ± 1 mm	36 ± 4 mm			MIC ([1]; Neisseria gonorrhoeae, ATCC49226): 0.8 µM (≈ 0.599 µg/mL); Concentration required for growth inhibition, fold greater than GUMBOS ([2]; N. gonorrhoeae clinical isolates): six to nine; MIC ([2]; Neisseria gonorrhoeae, read-out: MIC): 0.6 ± 0.2 µM (≈ 0.449 µg/mL); MIC ([3]; Escherichia coli, CRE E. Coli (Isolate 2)): 250 µM (≈ 187 µg/mL); MIC ([3]; Escherichia coli, CRE E. coli (Isolate 1)): > 500 µM; MIC ([4]; Klebsiella pneumoniae): 250 µM (≈ 187 µg/mL); MIC ([5]; Enterobacter cloacae): 250 µM (≈ 187 µg/mL); Zone sizes against CLSI susceptibility range [6]: within the susceptibility range set by CLSI
3.1 µM					4.7 ± 1.8 µM	CC(=O)O.CC(=O)O.NC(=N\CCCCCC/N=C(N)/N=C(\N)Nc1ccc(Cl)cc1)/N=C(\N)Nc1ccc(Cl)cc1 [Chlorhexidine diacetate, chlorhexidine diacetate]			80.8 ± 4.27 µM	24.6 ± 0.66 µM	
0.08 µM	12.5 µM	25 µM	50 µM	50 µM	0.06 ± 0.02 µM	CON=C(C(=O)NC1C(=O)N2C(C(=O)O)=C(CSc3nc(=O)c(O)nn3C)CSC12)c1csc(N)n1.N=C(NCCCCCCNC(=N)NC(=N)Nc1ccc(Cl)cc1)NC(=N)Nc1ccc(Cl)cc1 (centres unmarked) [[CHX][CRO], chlorhexidine-ceftriaxone]			84.3 ± 5.87 µM	45.5 ± 1.42 µM	Relative cell toxicity (in words) (HeLa cells): only slightly less toxic; Relative cell toxicity (in words) (HeLa cells; listed as Chlorhexidine-ceftriaxone): significantly less toxic than its unreacted, stoichiometric mixture; Log P [8]: 0.2 (±0.1)
						CC1(C)S[C@@H]2[C@H](NC(=O)C(C(=O)[O-])c3ccccc3)C(=O)N2[C@H]1C(=O)[O-].[Na+].[Na+] (some centres unmarked) [Na2 CAR, disodium carbenicillin]	27 ± 3 mm	28 ± 3 mm			

Compound	MIC [1]	MIC ([3]; CRE E. Coli (Isolate 2))	MIC ([3]; CRE E. coli (Isolate 1))	MIC [4]	MIC [5]	MIC [2]	Zone size, mm (±SD) [6]	Zone size, mm (±SD) [7]	IC50 (HeLa cells; 15 min)	IC50 (HeLa cells; 60 min)	other results
CCCCCCCCNc1cc[n+](CCCCCCCCCC[n+]2ccc(NCCCCCCCC)cc2)cc1.CON=C(C(=O)NC1C(=O)N2C(C(=O)[O-])=C(CSc3nc(=O)c([O-])nn3C)CSC12)c1csc(N)n1 [[OCT][CRO], octenidine-ceftriaxone]	0.08 µM	25 µM	50 µM	25 µM	25 µM	0.09 ± 0.07 µM			66.5 ± 8.24 µM	43.3 ± 5.98 µM	Relative cell toxicity (in words) (HeLa cells): significantly less toxic than octenidine dihydrochloride; Relative cell toxicity (in words) (HeLa cells; listed as octenidine-ceftriaxone): indifferent toxicity to its unreacted, stoichiometric mixture of parent compounds; Log P [8]: 0.3 (±0.2)
